The text below walks through data of patent US11065231B2, “Compounds and methods for the targeted degradation of interleukin-1 receptor- associated kinase 4 polypeptides” (Arvinas Operations, Inc., priority 2017, dated 2021).

The target of assay [1] is T1, IRAK4 (Homo sapiens (Human), UniProt Q9NWZ3). As to the kind of experiment: Biochemical Z'-Lyte FRET assay for IRAK4 kinase inhibition. The conditions noted are these: 2 nM enzyme, 1 mM ATP, 2 μM substrate. Put shortly:
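Z′-Lyte FRET phosphorylation of Ser/Thr 7 peptide (2 µM) by 2 nM recombinant IRAK4 at 1 mM ATP in HEPES pH 7.5 with MgCl2/MnCl2, after 10 min enzyme–compound preincubation; 1 h at room temperature, then 1 h development, 460/530 nm emission. Duplicate 12-point, 3-fold curves from 30 µM; IC50 from percent inhibition against ±100% controls.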

In assay [2] the target is T1, IRAK4. Description: Western blot assay for assessing degradation of IRAK4 in MCF7 cells. The class given is cell-based. The conditions noted are these: for Dmax: read-out: IRAK4 Dmax (%). Put shortly:
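MCF7 cells were treated 24 h with serially diluted compound (0.1% DMSO final), then lysed in RIPA. IRAK4 and IRAK1 levels were measured by western blot with β-actin probed alongside. Percent degradation compared compound-treated with DMSO-treated lysates.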
A general note: Immunoblotting shows a protein as a band on a membrane.

The mark [3] stands for this setting: Table 5, IRAK4 degradation, 24 hour incubation, read-out: IRAK4 DC50.
Setting [4] is: Table 5, IRAK4 degradation, 24 hour incubation.

Read-outs that look alike come from different tables or passages of the source.

As a reminder, the IC50 is the concentration that gives 50% inhibition. Lower therefore signals inhibition by little substance. Broadly, the DC50 is the concentration giving 50% degradation. For orientation: Dmax means the greatest extent of degradation seen.

T1 sequence (Q9NWZ3 whole entry): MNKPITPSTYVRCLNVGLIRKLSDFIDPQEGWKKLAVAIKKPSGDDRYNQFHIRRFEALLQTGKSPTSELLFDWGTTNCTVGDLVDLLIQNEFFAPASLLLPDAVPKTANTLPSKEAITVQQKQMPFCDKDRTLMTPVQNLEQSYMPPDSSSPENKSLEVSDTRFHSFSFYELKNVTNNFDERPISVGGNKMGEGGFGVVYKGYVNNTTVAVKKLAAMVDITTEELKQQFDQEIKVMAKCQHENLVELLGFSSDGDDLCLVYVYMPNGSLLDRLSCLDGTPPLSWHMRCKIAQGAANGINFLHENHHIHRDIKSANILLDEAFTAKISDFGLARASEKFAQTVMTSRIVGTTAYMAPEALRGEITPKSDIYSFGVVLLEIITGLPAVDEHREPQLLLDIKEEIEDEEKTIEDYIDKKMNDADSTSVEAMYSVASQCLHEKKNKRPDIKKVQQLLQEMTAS

With `O=C1CCC(N2C(=O)c3ccc(OCCOCCN4CCN(Cc5ccc6c(c5)nc(NC(=O)c5cccc(C(F)(F)F)c5)n6[C@H]5CC[C@@H](CO)CC5)CC4)cc3C2=O)C(=O)N1` (stereo partly shown) [compound 2, N-(5-((4-(2-(2-((2-(2,6-dioxopiperidin-3-yl)-1,3-dioxoisoindolin-5-yl)oxy)ethoxy)ethyl)piperazin-1-yl)methyl)-1-((1s,4s)-4-(hydroxymethyl)cyclohexyl)-1H-benzo[d]imidazol-2-yl)-3-(trifluoromethyl)benzamide], in assay [1], the IC50 is below 30 nM. Also, the DC50 in assay [2] (Table 1, 24 hours, read-out: IRAK4 by western DC50) was 10 nM; in assay [2] (setting [3]), below 30 nM; in assay [2] (western blot, 24 hour incubation, read-out: DC50 (IRAK4 degradation)), 9.7 nM.

Compound `N#Cc1ccc2ncnc(N[C@H]3CC[C@H](N4CCN(CCOc5ccc6c(c5)C(=O)N(C5CCC(=O)NC5=O)C6=O)CC4)CC3)c2c1` (stereo partly shown) [compound 29] yielded an IC50 in assay [1] of 300 to 1000 nM. Also, in assay [2] (setting [3]), the DC50 was at least 1000 nM.

Consider `Cc1ncsc1-c1ccc(CNC(=O)[C@@H]2C[C@@H](O)CN2C(=O)[C@@H](NC(=O)COCCOCCOCCOCCN2CCN(Cc3ccc4c(c3)nc(NC(=O)c3cccc(C(F)(F)F)c3)n4C3CCC(CO)CC3)CC2)C(C)(C)C)cc1` (mixture of isomers) [compound 14, (2S,4R)-1-((S)-2-(tert-butyl)-17-(4-((1-((1SR,4SR)-4-(hydroxymethyl)cyclohexyl)-2-(3-(trifluoromethyl)benzamido)-1H-benzo[d]imidazol-5-yl)methyl)piperazin-1-yl)-4-oxo-6,9,12-tetraoxa-3-azatetradecanoyl)-4-hydroxy-N-(4-(4-methylthiazol-5-yl)benzyl)pyrrolidine-2-carboxamide], for which the IC50 in assay [1] is below 30 nM. For the same compound, the DC50 in assay [2] (setting [3]) was at least 1000 nM.

In the case of `O=C1CCC(N2C(=O)c3ccc(OCCOCCOCCOCCOC[C@H]4CC[C@@H](n5c(NC(=O)c6cccc(C(F)(F)F)c6)nc6cc(F)ccc65)CC4)cc3C2=O)C(=O)N1` (stereo partly shown) [compound 48, N-(1-((1s,4s)-4-(13-((2-(2,6-dioxopiperidin-3-yl)-1,3-dioxoisoindolin-5-yl)oxy)-2,5,8,11-tetraoxatridecyl)cyclohexyl)-5-fluoro-1H-benzo[d]imidazol-2-yl)-3-(trifluoromethyl)benzamide], the IC50 in assay [1] was at least 1000 nM. The 50% degradation concentration (DC50) in assay [2] (setting [3]) was at least 1000 nM.

In assay [1], `COc1cccc(-n2c(NC(=O)c3cccc(C(F)(F)F)c3)nc3cc(CN4CCN(CCOCCOCCOc5ccc6c(c5)C(=O)N(C5CCC(=O)NC5=O)C6=O)CC4)ccc32)c1` (stereo not shown) [compound 54, N-(5-((4-(2-(2-(2-((2-(2,6-dioxopiperidin-3-yl)-1,3-dioxoisoindolin-5-yl)oxy)ethoxy)ethoxy)ethyl)piperazin-1-yl)methyl)-1-(3-methoxyphenyl)-1H-benzo[d]imidazol-2-yl)-3-(trifluoromethyl)benzamide] had a 50% inhibitory concentration (IC50) of at least 1000 nM. Also, in assay [2] (setting [3]), the DC50 is at least 1000 nM.

As for `N#Cc1ccc2ncnc(N[C@H]3CC[C@H](N4CCN(S(=O)(=O)CCOCCOCCOc5ccc6c(c5)C(=O)N(C5CCC(=O)NC5=O)C6=O)CC4)CC3)c2c1` (stereo partly shown) [compound 36], the half-maximal inhibitory concentration (IC50) in assay [1] is at least 1000 nM. The DC50 in assay [2] (setting [3]) is at least 1000 nM.

Regarding `N#Cc1ccc2ncnc(N[C@H]3CC[C@H](N4CCN(CCOCCOCCOCCOc5ccc6c(c5)C(=O)N(C5CCC(=O)NC5=O)C6=O)CC4)CC3)c2c1` (stereo partly shown) [compound 32], in assay [1], the IC50 is at least 1000 nM. Besides, the DC50 in assay [2] (setting [3]) was at least 1000 nM.

In turn, `Cc1ncsc1-c1ccc(CNC(=O)[C@@H]2C[C@@H](O)CN2C(=O)[C@@H](NC(=O)COCCOCCN2CCN(Cc3ccc4c(c3)nc(NC(=O)c3cccc(C(F)(F)F)c3)n4[C@H]3CC[C@@H](CO)CC3)CC2)C(C)(C)C)cc1` (racemic) [compound 12, (2S,4R)-4-hydroxy-1-((S)-2-(2-(2-(2-(4-((1-((1SR,4SR)-4-(hydroxymethyl)cyclohexyl)-2-(3-(trifluoromethyl)benzamido)-1H-benzo[d]imidazol-5-yl)methyl)piperazin-1-yl)ethoxy)ethoxy)acetamido)-3,3-dimethylbutanoyl)-N-(4-(4-methylthiazol-5-yl)benzyl)pyrrolidine-2-carboxamide] came in with a concentration for half-maximal inhibition (IC50) in assay [1] of 30 to 100 nM. Further, in assay [2] (setting [3]), the 50% degradation concentration (DC50) was at least 1000 nM.

Compound `O=C1CCC(N2C(=O)c3ccc(N4CCC(CN5CCN(Cc6ccc7c(c6)nc(NC(=O)c6cccc(C(F)(F)F)c6)n7[C@H]6CC[C@@H](CO)CC6)CC5)CC4)cc3C2=O)C(=O)N1` (stereo partly shown) [compound 9, N-(5-((4-((1-(2-(2,6-dioxopiperidin-3-yl)-1,3-dioxoisoindolin-5-yl)piperazin-4-yl)methyl)piperzin-1-yl)methyl)-1-((1s,4s)-4-(hydroxymethyl)cyclohexyl)-1H-benzo[d]imidazol-2-yl)-3-(trifluoromethyl)benzamide] showed an IC50 in assay [1] below 30 nM. For the same compound, the 50% degradation concentration (DC50) in assay [2] (setting [3]) was below 30 nM. Further, in assay [2] (setting [4]), the Dmax is above 70%.

As to `COc1cc2nn(C3CCN(CCOCCOc4ccc5c(c4)C(=O)N(C4CCC(=O)NC4=O)C5=O)CC3)cc2cc1NC(=O)c1cccc(C(F)(F)F)n1` (stereo not shown) [compound 58, N-(2-(1-(2-(2-((2-(2,6-dioxopiperidin-3-yl)-1,3-dioxoisoindolin-5-yl)oxy)ethoxy)ethyl)piperidin-4-yl)-6-methoxy-2H-indazol-5-yl)-6-(trifluoromethyl)picolinamide], the half-maximal inhibitory concentration (IC50) in assay [1] is below 30 nM. For the same compound, the 50% degradation concentration (DC50) in assay [2] (setting [3]) is below 30 nM. The Dmax in assay [2] (setting [4]) was 50 to 70%.

In assay [1], `Cc1ccc(-n2nc(N3CCN(CCOCCOCCOCC(=O)N[C@H](C(=O)N4C[C@H](O)C[C@H]4C(=O)NCc4ccc(-c5scnc5C)cc4)C(C)(C)C)CC3)cc2NC(=O)c2cnn3cccnc23)nc1` [compound 27, N-(3-(4-((S)-13-((2S,4R)-4-hydroxy-2-((4-(4-methylthiazol-5-yl)benzyl)carbamoyl)pyrrolidine-1-carbonyl)-14,14-dimethyl-11-oxo-3,6,9-trioxa-12-azapentadecyl)piperazin-1-yl)-1-(5-methylpyridin-2-yl)-1H-pyrazol-5-yl)pyrazolo[1,5-a]pyrimidine-3-carboxamide] had a 50% inhibitory concentration (IC50) of 300 to 1000 nM. Further, in assay [2] (setting [3]), the half-maximal degradation concentration (DC50) was at least 1000 nM.

As to `O=C1CCC(N2C(=O)c3ccc(OCCN4CCN(Cc5ccc6c(c5)nc(NC(=O)c5cccc(C(F)(F)F)c5)n6-c5ccccc5)CC4)cc3C2=O)C(=O)N1` (stereo not shown) [compound 55, N-(5-((4-(2-((2-(2,6-dioxopiperidin-3-yl)-1,3-dioxoisoindolin-5-yl)oxy)ethyl)piperazin-1-yl)methyl)-1-phenyl-1H-benzo[d]imidazol-2-yl)-3-(trifluoromethyl)benzamide], the IC50 in assay [1] was at least 1000 nM. Besides, the DC50 in assay [2] (setting [3]) was at least 1000 nM.

Take `CN(CCOc1ccc2c(c1)C(=O)N(C1CCC(=O)NC1=O)C2=O)c1cccc(-n2c(NC(=O)c3cccc(C(F)(F)F)c3)nc3cc(F)ccc32)c1` (stereo not shown) [compound 50, N-(1-(3-((2-((2-(2,6-dioxopiperidin-3-yl)-1,3-dioxoisoindolin-5-yl)oxy)ethyl)(methyl)amino)phenyl)-5-fluoro-1H-benzo[d]imidazol-2-yl)-3-(trifluoromethyl)benzamide]: the concentration for half-maximal inhibition (IC50) in assay [1] is at least 1000 nM. Besides, the DC50 in assay [2] (setting [3]) is at least 1000 nM.

Turning to `O=C1CCC(N2C(=O)c3ccc(OCCOCCOC[C@H]4CC[C@@H](n5c(NC(=O)c6cccc(C(F)(F)F)c6)nc6cc(F)ccc65)CC4)cc3C2=O)C(=O)N1` (stereo partly shown) [compound 46, N-(1-((1s,4s)-4-((2-(2-((2-(2,6-dioxopiperidin-3-yl)-1,3-dioxoisoindolin-5-yl)oxy)ethoxy)ethoxy)methyl)cyclohexyl)-5-fluoro-1H-benzo[d]imidazol-2-yl)-3-(trifluoromethyl)benzamide], the IC50 in assay [1] is at least 1000 nM. Also, the DC50 in assay [2] (setting [3]) is at least 1000 nM.

Take `Cc1ccc(-n2nc(N3CCN(CCOCCOCCOc4ccc5c(c4)C(=O)N(C4CCC(=O)NC4=O)C5=O)CC3)cc2NC(=O)c2cnn3cccnc23)nc1` (stereo not shown) [compound 25, N-(3-(4-(2-(2-(2-((2-(2,6-dioxopiperidin-3-yl)-1,3-dioxoisoindolin-5-yl)oxy)ethoxy)ethoxy)ethyl)piperazin-1-yl)-1-(5-methylpyridin-2-yl)-1H-pyrazol-5-yl)pyrazolo[1,5-a]pyrimidine-3-caboxamide]: in assay [1], the concentration for half-maximal inhibition (IC50) lay within 30 to 100 nM. Further, the half-maximal degradation concentration (DC50) in assay [2] (setting [3]) was at least 1000 nM.

In assay [1], `O=C1CCC(N2C(=O)c3cccc(NCCOCCOCCN4CCN(Cc5ccc6c(c5)nc(NC(=O)c5cccc(C(F)(F)F)c5)n6[C@H]5CC[C@@H](CO)CC5)CC4)c3C2=O)C(=O)N1` (stereo partly shown) [compound 66, N-(5-((4-(2-(2-(2-((2-(2,6-dioxopiperidin-3-yl)-1,3-dioxoisoindolin-4-yl)amino)ethoxy)ethoxy)ethyl)piperazin-1-yl)methyl)-1-((1s,4s)-4-(hydroxymethyl)cyclohexyl)-1H-benzo[d]imidazol-2-yl)-3-(trifluoromethyl)benzamide] displayed an IC50 below 30 nM. Besides, the DC50 in assay [2] (setting [3]) lay within 300 to 1000 nM.

In assay [1], `N#Cc1ccc2ncnc(N[C@H]3CC[C@@H](N4CCN(S(=O)(=O)CCOCCOCCOCCOCCOc5ccc6c(c5)C(=O)N(C5CCC(=O)NC5=O)C6=O)CC4)CC3)c2c1` (stereo partly shown) [compound 41] came in with an IC50 of at least 1000 nM. Also, the DC50 in assay [2] (setting [3]) is at least 1000 nM.

On to `O=C1CCC(N2C(=O)c3ccc(OCCN4CCN(Cc5ccc6c(c5)nc(NC(=O)c5cccc(C(F)(F)F)c5)n6[C@H]5CC[C@@H](CO)CC5)CC4)cc3C2=O)C(=O)N1` (stereo partly shown) [compound 1, N-(5-((4-(2-((2-(2,6-dioxopiperidin-3-yl)-1,3-dioxoisoindolin-5-yl)oxy)ethyl)piperazin-1-yl)methyl)-1-((1s,4s)-4-(hydroxymethyl)cyclohexyl)-1H-benzo[d]imidazol-2-yl)-3-(trifluoromethyl)benzamide], for which the IC50 in assay [1] was below 30 nM. In assay [2] (setting [3]), the DC50 was in the range of 100 to 300 nM.
